Reference: US20100119499A1, “STILBENE-BASED COMPOSITIONS AND METHODS OF USE THEREFOR” (priority 2009, published 2010)
Like-named read-outs stand apart in the source and are kept apart here.

Experiments:
healthy, adult humans = experiment: oral pterostilbene in humans, whole blood glucose by finger prick glucometer; type: in vivo
Procedure: In work described herein using pterostilbene orally in humans (supplied by Chromadex, 10005 Muirlands Boulevard, Suite G, Irvine, Calif. 92618, USA) dosing of oral pterostilbene was initially started at a lower dose than the calculated HED, with the intent of titrating the dose up as needed.
The test subject was immediately treated with oral glucose and other carbohydrates and recovered without other incident. […] At oral dosing above 0.165 mg/kg (actual dose tested 20 mg) pterostilbene is capable of inducing profound hypoglycemia (e.g., whole blood glucose at or below 55 mg/dL) and the side effects associated with this condition. Accordingly, at the doses predicted by the FDA/CDER formula, oral administration of pterostilbene to humans would likely be fatal.

humans = experiment: oral pterostilbene combined with nutrients, athletic performance in humans; type: in vivo, human
Procedure: Additional work described herein addressed the effects of combining oral pterostilbene with various nutrients on athletic performance. Specifically, oral pterostilbene was administered with creatine supplements, and the effect of this combination was compared with the effect of creatine supplements alone.
The addition of exogenous dietary carbohydrates such as glucose, isolmaltulose, leucrose, trehalose, trehalulose, amylose, ribose, and maltodextrin to the creatine-containing supplement allowed for even higher pterostilbene dosing (up to 25 mg of oral pterostilbene) and produced an even more pronounced, immediate increase in athletic performance without the onset of hypoglycemia.
While not wishing to be bound by any particular theory, the inventors believe that pterostilbene increases or otherwise effects a change in the rate and quantity of the transfer of these nutrients from the blood plasma into the tissues and organs. Such dietary nutrients include, but are not limited to, creatine and its salts esters, amides and chelates, creatinol-O-phosphate, branched chain amino acids (leucine, isoleucine, valine) and their salts, esters, amides and chelates, branched chain keto-acids including, but not limited to ketoisocaproate and its salts, other ergogenic, performance-enhancing amino acids including, but not limited to, taurine, beta-alanine, arginine, ornithine, aspartic acid, glutamine, glutaric acid, agmatine, citrulline, norvaline, glycine, cysteine and their salts, ester, amides and chelates, performance enhancing dipeptides including, but not limited to, carnitine, anserine and carnosine and their salts and esters and proteins that are known to contain dipeptides such as whey or soy or egg protein isolates or concentrates or any combination of these non-carbohydrate based dietary nutrients.
Further, the addition and oral consumption of one or more exogenous dietary carbohydrates, including but not limited to rice oligodextrin, amylose, amylopectin, glucose, maltodextrin, maltose, isolmaltulose, leucrose, trehalulose, ribose, trehalose, and/or fructose in conjunction with pterostilbene and a non-carbohydrate based dietary nutrient or nutrients simultaneously further increases the athletic performance-enhancing effects of pterostilbene and the non-carbohydrate dietary nutrient(s) by up to 50% and also increases the tolerability of pterostilbene in humans by up to 50%.

[1] = ABAP-derived peroxyl radicals; cited from earlier work
normal human fibroblasts = conditions: cited from earlier work
[2] = test system: streptozotocin-induced hyperglycemic rats; conditions: cited from earlier work
rats = conditions: doses 10 mg/kg up to 40 mg/kg bodyweight; cited from earlier work
DPPH radical scavenging = conditions: converted value in brackets
[3] = inhibition of citronellal thermo-oxidation; conditions: converted value in brackets
[4] = total reactive antioxidant potential against ABAP-derived peroxyl radicals; conditions: converted value in brackets
MAO leukemia cell line = conditions: relative to cis-resveratrol; cited from earlier work
[5] = 5 mg oral (0.0486 mg/kg) added to creatine-containing liquid supplement vs supplement alone, one healthy person
[6] = pterostilbene plus non-carbohydrate nutrient(s) plus exogenous dietary carbohydrates, oral

SMILES | drop of whole blood glucose level (healthy, adult humans; 30 mg oral single dose (about 0.248 mg/kg), one healthy person, within fifteen minutes) | oral dose above which profound hypoglycemia and its side effects are induced (healthy, adult humans; profound hypoglycemia e.g. whole blood glucose at or below 55 mg/dL, actual dose tested 20 mg) | effect on athletic performance (humans; 3 mg to 20 mg added to a creatine-containing supplement) | immediate increase in anaerobic work capacity (humans; [5]) | immediate increase in maximal exertion power (humans; [5]) | oral dose possible without the onset of hypoglycemia (humans; human, in vivo, po) | further increase of athletic performance-enhancing effects by added carbohydrates (humans; [6]) | increase of tolerability in humans by added carbohydrates (humans; [6]) | total reactive antioxidant potential [1] | reduction of thiobarbituric acid reactive substances (TBARS) production (normal human fibroblasts) | lowering of blood glucose level [2] | adverse effects (rats) | EC50, scavenging of DPPH radicals (DPPH radical scavenging) | EQ value, inhibition of cintronellal thermo-oxidation [3] | total reactive antioxidant potential [4] | ability to induce apoptosis compared to cis-resveratrol (MAO leukemia cell line)
COc1cc(/C=C/c2ccc(O)cc2)cc(OC)c1 [pterostilbene, trans-3,5-dimethoxy-4′-hydroxystilbene] | about 50 mg/dL | above 0.165 mg/kg | improves athletic performance dramatically | ~12% | ~8% | up to 25 mg | up to 50% | up to 50% | 237 ± 58 mM | 61% | 42% | no adverse effects noted | ~7680 µg/mL | ~90.9 mg/mL | ~60.7 mg/mL | –
Oc1ccc(/C=C/c2cc(O)cc(O)c2)cc1 [trans-reseveratrol] | – | – | – | – | – | – | – | – | – | – | – | – | – | – | – | ten times more potent
